Results: US12459951B2, “Compounds that interact with RAS superfamily proteins for treatment of cancers, inflammatory diseases, rasopathies, and fibrotic disease” (SHY Therapeutics, LLC, priority 2022, dated 2025)

Tests used:
Rheb = molecular target: T1, Rheb (Homo sapiens, UniProt Q15382); test: Rheb GTP Binding Domain Inhibition Assay; conditions: read-out: Rheb: % inh.
T1 construct: made in house
Description: Protocol for Cdc42 and Rheb GTP Binding Domain Inhibition Assay
The following method was developed as specific assay for cdc42 and Rheb proteins.
• 25 mM Tris-HCl, pH 7.4 • 27 mM KCl • 137 mM NaCl • 1 mM MgCl2 • 1 mM DTT Buffer-II: • 50 mM Tris-HCl, pH 7.0 • 1 mM MgCl2 • 1 mM DTT
The small GTPases proteins cdc42 and Rheb were expressed as His-tagged proteins. For the assay, the cdc42 and Rheb purified small GTPases proteins were diluted in Buffer-I or Buffer-II to a final concentration of 10-30 μg/mL. 200 μL of each diluted protein was added to a nickel-coated 96-well plate and incubated overnight at […]. Then the protein solution was discarded and 200 μL of Buffer-I or Buffer-II was added to each well in the presence of 1% DMSO. Compounds to be tested were added to the protein-coated wells at final concentration of 20 μM, and incubated for 3 hours at room temperature with and without 10-30 μg/mL of Sos added to the final hour of the incubation. When performing IC50 measurements a serial dilution of all tested concentrations was added. Then Cy3-GTP or Cy5-GTP was added to each well to a final concentration of 100 nM. The labeled GTP was incubated for 45 minutes at room temperature. Following GTP incubation, wells were washed 3× in Buffer-I or Buffer-II and 200 μL of Buffer-I or Buffer-II was added to each well. Following washes, the amount of bound labeled-GTP was measured using a SpectraMax M3 (Molecular Devices).

[1] = Kinetic Solubility Assay in pH 7.4 Buffer + 2% DMSO; format: physicochemical; conditions: phosphate-buffered saline pH 7.4 with 2% DMSO, aqueous buffer, kinetic from dmso stock, 25° C., two hours
Outline: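 Compound from 20 mM DMSO stock diluted to nominal 400 μM in PBS pH 7.4 with 2% DMSO, in duplicate, shaken 2 h at 25° C., then filtered. Filtrate quantified by UV absorbance (230-550 nm) against 10-200 μM calibration curves; effective range ~2-400 μM.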

[2] = Mouse Liver Microsome Metabolic Stability Assay; format: in vitro ADME; conditions: pH 7.4, Mouse liver microsomes, 37° C., NADPH, read-out: t½
Outline: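 Compounds (2 μM, 1.6% solvent) incubated at 37 °C with mouse liver microsomes (0.42 mg/mL) in 100 mM phosphate pH 7.4 with an NADPH-regenerating system; five time points over 40 min, duplicates, LC-MS/MS. kel, t1/2 and Clint from linear regression of ln(AUC) vs. time; no-NADPH controls.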

T1 sequence (Q15382 whole entry, the tested form may be a part): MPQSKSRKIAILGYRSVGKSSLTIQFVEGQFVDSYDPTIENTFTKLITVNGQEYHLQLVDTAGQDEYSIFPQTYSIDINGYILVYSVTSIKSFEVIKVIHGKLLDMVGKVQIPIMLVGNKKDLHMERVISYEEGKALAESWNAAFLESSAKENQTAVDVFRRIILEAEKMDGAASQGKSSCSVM

Row | Structure (SMILES) | inhibition at 20 µM (Rheb) | solubility at 2 h [1] | half-life at 2 µM [2]
1 | COc1cc(-c2cn3nc(-c4nccn4C)nc(Nc4cc(OC)ncn4)c3c2C)ccn1 [Compound 50, 6-(2-Methoxypyridin-4-yl)-N-(6-methoxypyrimidin-4-yl)-5-methyl-2-(1-methyl-1H-imidazol-2-yl)pyrrolo[2,1-f][1,2,4]triazin-4-amine] | 26 to 49% | < 10 µM | –
2 | COc1ccnc(Nc2nc(-c3nccn3C)nn3cc(-c4ccn(C(C)C)n4)c(C)c23)n1 [Compound 53, 6-(1-Isopropyl-1H-pyrazol-3-yl)-N-(4-methoxypyrimidin-2-yl)-5-methyl-2-(1-methyl-1H-imidazol-2-yl)pyrrolo[2,1-f][1,2,4]triazin-4-amine] | 76 to 100% | 10 to 30 µM | –
3 | Cc1c(-c2ccn(C(C)C)n2)cn2nc(-c3nccn3C)nc(Nc3ncccn3)c12 [Compound 54, 6-(1-Isopropyl-1H-pyrazol-3-yl)-5-methyl-2-(1-methyl-1H-imidazol-2-yl)-N-(pyrimidin-2-yl)pyrrolo[2,1-f][1,2,4]triazin-4-amine] | 76 to 100% | < 10 µM | –
4 | Cc1c(-c2ccn(C(C)C)n2)cn2nc(-c3nccn3C)nc(Nc3ccncn3)c12 [Compound 55, 6-(1-Isopropyl-1H-pyrazol-3-yl)-5-methyl-2-(1-methyl-1H-imidazol-2-yl)-N-(pyrimidin-4-yl)pyrrolo[2,1-f][1,2,4]triazin-4-amine] | 76 to 100% | 10 to 30 µM | –
5 | Cc1c(-c2ccn(C(C)C)n2)cn2nc(-c3nccn3C)nc(Nc3ccccn3)c12 [Compound 57, 6-(1-Isopropyl-1H-pyrazol-3-yl)-5-methyl-2-(1-methyl-1H-imidazol-2-yl)-N-(pyridin-2-yl)pyrrolo[2,1-f][1,2,4]triazin-4-amine] | 76 to 100% | 10 to 30 µM | –
6 | COc1ccnc(Nc2nc(-c3nccn3C)nn3cc(-c4ccn(C(C)C)n4)c(C)c23)c1 [Compound 58, 6-(1-Isopropyl-1H-pyrazol-3-yl)-N-(4-methoxypyridin-2-yl)-5-methyl-2-(1-methyl-1H-imidazol-2-yl)pyrrolo[2,1-f][1,2,4]triazin-4-amine] | 76 to 100% | 10 to 30 µM | –
7 | Cc1c(-c2ccn(C(C)C)n2)cn2nc(-c3nccn3C)nc(Nc3nnco3)c12 [Compound 59, N-(6-(1-Isopropyl-1H-pyrazol-3-yl)-5-methyl-2-(1-methyl-1H-imidazol-2-yl)pyrrolo[2,1-f][1,2,4]triazin-4-yl)-1,3,4-oxadiazol-2-amine] | 50 to 75% | < 10 µM | –
8 | Cc1c(-c2ccn(C(C)C)n2)cn2nc(-c3nccn3C)nc(Nc3cnccn3)c12 [Compound 62, 6-(1-Isopropyl-1H-pyrazol-3-yl)-5-methyl-2-(1-methyl-1H-imidazol-2-yl)-N-(pyrazin-2-yl)pyrrolo[2,1-f][1,2,4]triazin-4-amine] | 0% | < 10 µM | –
9 | COc1cc(Nc2nc(-c3nccn3C)nn3cc(-c4ccn(C)n4)c(C)c23)ncn1 [Compound 63, N-(6-Methoxypyrimidin-4-yl)-5-methyl-2-(1-methyl-1H-imidazol-2-yl)-6-(1-methyl-1H-pyrazol-3-yl)pyrrolo[2,1-f][1,2,4]triazin-4-amine] | 50 to 75% | < 10 µM | –
10 | COc1ccc(Nc2nc(-c3nccn3C)nn3cc(-c4ccn(C(C)C)n4)c(C)c23)cn1 [Compound 71, 6-(1-Isopropyl-1H-pyrazol-3-yl)-N-(6-methoxypyridin-3-yl)-5-methyl-2-(1-methyl-1H-imidazol-2-yl)pyrrolo[2,1-f][1,2,4]triazin-4-amine] | 1 to 25% | – | –
11 | Cc1c(-c2ccn(C(C)C)n2)cn2nc(-c3nccn3C)nc(Nc3ccn(C(C)C)n3)c12 [Compound 72, N,6-bis(1-Isopropyl-1H-pyrazol-3-yl)-5-methyl-2-(1-methyl-1H-imidazol-2-yl)pyrrolo[2,1-f][1,2,4]triazin-4-amine] | 50 to 75% | – | –
12 | COc1cncnc1Nc1nc(-c2nccn2C)nn2cc(-c3ccn(C(C)C)n3)c(C)c12 [Compound 73, 6-(1-Isopropyl-1H-pyrazol-3-yl)-N-(5-methoxypyrimidin-4-yl)-5-methyl-2-(1-methyl-1H-imidazol-2-yl)pyrrolo[2,1-f][1,2,4]triazin-4-amine] | 50 to 75% | – | –
13 | COc1ccc(Nc2nc(-c3nccn3C)nn3cc(-c4ccn(C(C)C)n4)c(C)c23)nn1 [Compound 74, 6-(1-Isopropyl-1H-pyrazol-3-yl)-N-(6-methoxypyridazin-3-yl)-5-methyl-2-(1-methyl-1H-imidazol-2-yl)pyrrolo[2,1-f][1,2,4]triazin-4-amine] | 0% | – | –
14 | Cc1c(-c2ccn(C)n2)cn2nc(-c3nccn3C)nc(Nc3cc(-c4ccccn4)ccn3)c12 [Compound 248, N-([2,4′-Bipyridin]-2′-yl)-5-methyl-2-(1-methyl-1H-imidazol-2-yl)-6-(1-methyl-1H-pyrazol-3-yl)pyrrolo[2,1-f][1,2,4]triazin-4-amine] | – | < 10 µM | > 10 min
15 | Cc1c(-c2ccn(C)n2)cn2nc(-c3nccn3C)nc(Nc3cc(-c4cccnc4)ccn3)c12 [Compound 250, N-([3,4′-Bipyridin]-2′-yl)-5-methyl-2-(1-methyl-1H-imidazol-2-yl)-6-(1-methyl-1H-pyrazol-3-yl)pyrrolo[2,1-f][1,2,4]triazin-4-amine] | – | < 10 µM | < 10 min
16 | COc1cc(Nc2nc(-c3nccn3C)nn3cc(-c4ccn(C)n4)c(C)c23)n[nH]1 [Compound 252, N-(5-Methoxy-1H-pyrazol-3-yl)-5-methyl-2-(1-methyl-1H-imidazol-2-yl)-6-(1-methyl-1H-pyrazol-3-yl)pyrrolo[2,1-f][1,2,4]triazin-4-amine] | – | < 10 µM | < 10 min
17 | Cc1cc(Nc2nc(-c3nccn3C)nn3cc(-c4ccn(C)n4)c(C)c23)n[nH]1 [Compound 255, 5-Methyl-2-(1-methyl-1H-imidazol-2-yl)-6-(1-methyl-1H-pyrazol-3-yl)-N-(5-methyl-1H-pyrazol-3-yl)pyrrolo[2,1-f][1,2,4]triazin-4-amine] | – | > 30 µM | > 10 min
18 | CCOc1cc(Nc2nc(-c3nccn3C)nn3cc(-c4ccn(C)n4)c(C)c23)n[nH]1 [Compound 260, N-(5-Ethoxy-1H-pyrazol-3-yl)-5-methyl-2-(1-methyl-1H-imidazol-2-yl)-6-(1-methyl-1H-pyrazol-3-yl)pyrrolo[2,1-f][1,2,4]triazin-4-amine] | – | < 10 µM | < 10 min
19 | Cc1c(-c2ccn(C)n2)cn2nc(-c3nccn3C)nc(Nc3cc(-c4ccccn4)[nH]n3)c12 [Compound 265, 5-Methyl-2-(1-methyl-1H-imidazol-2-yl)-6-(1-methyl-1H-pyrazol-3-yl)-N-(5-(pyridin-2-yl)-1H-pyrazol-3-yl)pyrrolo[2,1-f][1,2,4]triazin-4-amine] | – | < 10 µM | > 10 min
20 | Cc1[nH]nc(Nc2nc(-c3nccn3C)nn3cc(-c4ccn(C)n4)c(C)c23)c1C [Compound 267, N-(4,5-Dimethyl-1H-pyrazol-3-yl)-5-methyl-2-(1-methyl-1H-imidazol-2-yl)-6-(1-methyl-1H-pyrazol-3-yl)pyrrolo[2,1-f][1,2,4]triazin-4-amine] | – | 10 to 30 µM | > 10 min
21 | Cc1c(-c2ccn(C)n2)cn2nc(-c3nccn3C)nc(Nc3cc(C(C)C)[nH]n3)c12 [Compound 268, N-(5-Isopropyl-1H-pyrazol-3-yl)-5-methyl-2-(1-methyl-1H-imidazol-2-yl)-6-(1-methyl-1H-pyrazol-3-yl)pyrrolo[2,1-f][1,2,4]triazin-4-amine] | – | < 10 µM | < 10 min
